# According to ChEMBL document CHEMBL1201861, “Genomics of Drug Sensitity in Cancer screening data, Wellcome Trust Sanger Institute”:
# pIC50: −log10 of the molar value.
# Assays:
# Experiment in all cases: cells
# Settings in all cases: Homo sapiens
# NH-12 = type: functional, cell-based;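 also: growth inhibition of NH-12 cells, read out with a cell viability assay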
# Description: SANGER: Inhibition of human NH-12 cell growth in a cell viability assay.
# NEC8 = type: functional, cell-based;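 also: growth inhibition of human NEC8 cells, read out by a cell viability assay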
# Description: SANGER: Inhibition of human NEC8 cell growth in a cell viability assay.
# TE-9 = type: functional, cell-based;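 also: cell growth inhibition, measured with a cell viability readout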
# Description: SANGER: Inhibition of human TE-9 cell growth in a cell viability assay.
# CTV-1 = type: functional, cell-based;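 also: growth inhibition of the cell line, read out with a cell viability assay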
# Description: SANGER: Inhibition of human CTV-1 cell growth in a cell viability assay.
# U-266 = type: functional, cell-based
# Description: SANGER: Inhibition of human U-266 cell growth in a cell viability assay.
# MSTO-211H = type: functional, cell-based
# Description: SANGER: Inhibition of human MSTO-211H cell growth in a cell viability assay.
# TE-12 = type: functional, cell-based;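 also: growth inhibition of TE-12 cells, read out by a cell viability assay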
# Description: SANGER: Inhibition of human TE-12 cell growth in a cell viability assay.
# LOX IMVI = type: functional, cell-based
# Description: SANGER: Inhibition of human LOXIMVI cell growth in a cell viability assay.
# KLE = type: functional, cell-based;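 also: growth inhibition of human KLE cells, read out with a cell viability assay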
# Description: SANGER: Inhibition of human KLE cell growth in a cell viability assay.
# MZ1-PC = type: functional, cell-based;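 also: cell viability assay measuring growth inhibition of human MZ1-PC cells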
# Description: SANGER: Inhibition of human MZ1-PC cell growth in a cell viability assay.
# UACC-257 = type: functional, cell-based
# Description: SANGER: Inhibition of human UACC-257 cell growth in a cell viability assay.
# SCC-15 = type: functional, cell-based;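 also: growth inhibition of SCC-15 cells, read out with a cell viability assay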
# Description: SANGER: Inhibition of human SCC-15 cell growth in a cell viability assay.
# SNB-75 = type: functional, cell-based;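 also: cell viability assay measuring growth inhibition of human SNB-75 cells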
# Description: SANGER: Inhibition of human SNB75 cell growth in a cell viability assay.
# DEL = type: functional, cell-based;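 also: growth inhibition of the human DEL cell line, read out with a cell viability assay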
# Description: SANGER: Inhibition of human DEL cell growth in a cell viability assay.
# SW982 = type: functional, cell-based;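 also: growth inhibition of SW982 cells, read out with a cell viability assay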
# Description: SANGER: Inhibition of human SW982 cell growth in a cell viability assay.
# TE-11 = type: functional, cell-based;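 also: growth inhibition of human TE-11 cells, read out by a cell viability assay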
# Description: SANGER: Inhibition of human TE-11 cell growth in a cell viability assay.
# GAK = type: functional, cell-based;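 also: cell growth inhibition read out by a cell viability assay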
# Description: SANGER: Inhibition of human GAK cell growth in a cell viability assay.
# TE-1 = type: functional, cell-based
# Description: SANGER: Inhibition of human TE-1 cell growth in a cell viability assay.
# NB10 = type: functional, cell-based;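 also: growth inhibition of NB10 cells, read out by a cell viability assay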
# Description: SANGER: Inhibition of human NB10 cell growth in a cell viability assay.
# GI-ME-N = type: functional, cell-based;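 also: growth inhibition of human GI-ME-N cells, read out with a cell viability assay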
# Description: SANGER: Inhibition of human GI-ME-N cell growth in a cell viability assay.
# COLO-824 = type: functional, cell-based
# Description: SANGER: Inhibition of human COLO-824 cell growth in a cell viability assay.
# Lu-65 = type: functional, cell-based;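 also: growth inhibition of Lu-65 cancer cells, read out by a cell viability assay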
# Description: SANGER: Inhibition of human LU-65 cell growth in a cell viability assay.
# Mo = type: functional, cell-based
# Description: SANGER: Inhibition of human Mo-T cell growth in a cell viability assay.
# NCI-H1092 = type: functional, cell-based;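 also: cell growth inhibition measured with a cell viability assay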
# Description: SANGER: Inhibition of human NCI-H1092 cell growth in a cell viability assay.
# KINGS-1 = type: functional, cell-based;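 also: cell viability assay measuring suppression of KINGS-1 cell growth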
# Description: SANGER: Inhibition of human KINGS-1 cell growth in a cell viability assay.
# SW684 = type: functional, cell-based;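 also: growth inhibition of human SW684 cells, measured by a cell viability assay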
# Description: SANGER: Inhibition of human SW684 cell growth in a cell viability assay.
# KNS-42 = type: functional, cell-based;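 also: growth inhibition of KNS-42 cells, read out with a cell viability assay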
# Description: SANGER: Inhibition of human KNS-42 cell growth in a cell viability assay.
# MEG-01 = type: functional, cell-based;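 also: growth inhibition of MEG-01 cells, read out by a cell viability assay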
# Description: SANGER: Inhibition of human MEG-01 cell growth in a cell viability assay.
# SW 954 = type: functional, cell-based;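 also: growth inhibition of SW954 human cancer cells, read out as cell viability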
# Description: SANGER: Inhibition of human SW954 cell growth in a cell viability assay.
# CAS-1 = type: functional, cell-based;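 also: growth inhibition of CAS-1 cells, measured with a cell viability assay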
# Description: SANGER: Inhibition of human CAS-1 cell growth in a cell viability assay.
# D283 Med = type: functional, cell-based
# Description: SANGER: Inhibition of human D-283MED cell growth in a cell viability assay.
# NB5 = type: functional, cell-based;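 also: growth inhibition of NB5 cells, read out as cell viability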
# Description: SANGER: Inhibition of human NB5 cell growth in a cell viability assay.
# SNU1 = type: functional, cell-based;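 also: growth inhibition of human NCI-SNU-1 cells, measured with a cell viability assay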
# Description: SANGER: Inhibition of human NCI-SNU-1 cell growth in a cell viability assay.
# NCI-H226 = type: functional, cell-based;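 also: cell viability read-out used to gauge growth inhibition of the cells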
# Description: SANGER: Inhibition of human NCI-H226 cell growth in a cell viability assay.
# NOS-1 = type: functional, cell-based;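 also: growth inhibition of the human NOS-1 cell line, read out with a cell viability assay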
# Description: SANGER: Inhibition of human NOS-1 cell growth in a cell viability assay.
# MN-60 = type: functional, cell-based;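 also: growth inhibition of the MN-60 cell line, determined with a cell viability assay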
# Description: SANGER: Inhibition of human MN-60 cell growth in a cell viability assay.
# KU812 cell line = type: functional, cell-based;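 also: growth inhibition of KU812 cells, read out with a cell viability assay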
# Description: SANGER: Inhibition of human KU812 cell growth in a cell viability assay.
# HEL = type: functional, cell-based;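 also: growth inhibition of HEL cells, read out with a cell viability assay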
# Description: SANGER: Inhibition of human HEL cell growth in a cell viability assay.
# COLO-684 = type: functional, cell-based
# Description: SANGER: Inhibition of human COLO-684 cell growth in a cell viability assay.
# KURAMOCHI = type: functional, cell-based;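 also: growth inhibition of KURAMOCHI cells, read out with a cell viability assay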
# Description: SANGER: Inhibition of human KURAMOCHI cell growth in a cell viability assay.
# TK-10 = type: functional, cell-based;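 also: growth inhibition of TK-10 cells, read out in a cell viability assay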
# Description: SANGER: Inhibition of human TK10 cell growth in a cell viability assay.
# KALS-1 = type: functional, cell-based;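 also: growth inhibition of KALS-1 cells, determined with a cell viability assay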
# Description: SANGER: Inhibition of human KALS-1 cell growth in a cell viability assay.
# DB = type: functional, cell-based
# Description: SANGER: Inhibition of human DB cell growth in a cell viability assay.
# HH = type: functional, cell-based
# Description: SANGER: Inhibition of human HH cell growth in a cell viability assay.
# RH-1 = type: functional, cell-based;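 also: growth inhibition of human RH-1 cells, read out with a cell viability assay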
# Description: SANGER: Inhibition of human RH-1 cell growth in a cell viability assay.
# no-11 = type: functional, cell-based;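 also: growth inhibition of human NO-11 cells, read out with a cell viability assay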
# Description: SANGER: Inhibition of human no-11 cell growth in a cell viability assay.
# AM-38 = type: functional, cell-based;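 also: growth inhibition of AM-38 cells of human origin, read out by a cell viability assay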
# Description: SANGER: Inhibition of human AM-38 cell growth in a cell viability assay.
# NCI-H23 = type: functional, cell-based;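 also: cell viability assay measuring growth inhibition of NCI-H23 cells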
# Description: SANGER: Inhibition of human NCI-H23 cell growth in a cell viability assay.
# OCUB-M = type: functional, cell-based;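 also: growth inhibition of the cancer cell line, read out through a cell viability assay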
# Description: SANGER: Inhibition of human OCUB-M cell growth in a cell viability assay.
# MPP-89 = type: functional, cell-based;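 also: growth inhibition of human MPP-89 cells, read out with a cell viability assay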
# Description: SANGER: Inhibition of human MPP-89 cell growth in a cell viability assay.
# MFM-223 = type: functional, cell-based
# Description: SANGER: Inhibition of human MFM-223 cell growth in a cell viability assay.
# NCI-H1648 = type: functional, cell-based;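 also: cell viability assay measuring inhibition of NCI-H1648 cell growth, from the Sanger screening data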
# Description: SANGER: Inhibition of human NCI-H1648 cell growth in a cell viability assay.
# CP66-MEL = type: functional, cell-based;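 also: growth inhibition of CP66-MEL cells determined in a cell viability assay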
# Description: SANGER: Inhibition of human CP66-MEL cell growth in a cell viability assay.
# LU-139 = type: functional, cell-based
# Description: SANGER: Inhibition of human LU-139 cell growth in a cell viability assay.
# CW-2 = type: functional, cell-based;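 also: growth inhibition of CW-2 cells, read out by a cell viability assay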
# Description: SANGER: Inhibition of human CW-2 cell growth in a cell viability assay.
# NTERA-2-cl-D1 = type: functional, cell-based;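 also: inhibition of cell growth, measured with a cell viability assay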
# Description: SANGER: Inhibition of human NTERA-S-cl-D1 cell growth in a cell viability assay.
# CGTH-W-1 = type: functional, cell-based;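 also: growth inhibition of human CGTH-W-1 cells measured by cell viability assay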
# Description: SANGER: Inhibition of human CGTH-W-1 cell growth in a cell viability assay.
# ALL-PO = type: functional, cell-based;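 also: growth inhibition of ALL-PO cells, read out by a cell viability assay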
# Description: SANGER: Inhibition of human ALL-PO cell growth in a cell viability assay.
# U-87 MG = type: functional, cell-based, U-87MG ATCC;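 also: growth inhibition of the cells measured with a viability assay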
# Description: SANGER: Inhibition of human U-87-MG cell growth in a cell viability assay.
# 8-MG-BA = type: functional, cell-based;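 also: growth inhibition of 8-MG-BA cells, read out with a cell viability assay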
# Description: SANGER: Inhibition of human 8-MG-BA cell growth in a cell viability assay.
# NCI-H510A = type: functional, cell-based;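 also: growth inhibition of NCI-H510A cells, read out with a cell viability assay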
# Description: SANGER: Inhibition of human NCI-H510A cell growth in a cell viability assay.
# DMS-79 = type: functional, cell-based;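 also: growth inhibition measured with a cell viability assay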
# Description: SANGER: Inhibition of human DMS-79 cell growth in a cell viability assay.
# LC-2-ad = type: functional, cell-based;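 also: growth inhibition of human LC-2-ad cells, read out with a cell viability assay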
# Description: SANGER: Inhibition of human LC-2-ad cell growth in a cell viability assay.
# NCI-H1770 = type: functional, cell-based;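 also: growth inhibition of NCI-H1770 cells determined with a viability readout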
# Description: SANGER: Inhibition of human NCI-H1770 cell growth in a cell viability assay.
# KP-N-YS = type: functional, cell-based
# Description: SANGER: Inhibition of human KP-N-YS cell growth in a cell viability assay.
# MS-1 = type: functional, cell-based
# Description: SANGER: Inhibition of human MS-1 cell growth in a cell viability assay.
structure (smiles),measurement,setting,value
CC[C@]1(O)C[C@@H]2CN(CCc3c([nH]c4ccccc34)[C@@](C(=O)OC)(c3cc4c(cc3OC)N(C)[C@H]3[C@@](O)(C(=O)OC)[C@H](OC(C)=O)[C@]5(CC)C=CCN6CC[C@]43[C@@H]65)C2)C1 [VINBLASTINE],pIC50,NH-12,7.58
same,pIC50,NEC8,8.29
same,pIC50,TE-9,8.37
same,pIC50,CTV-1,8.85
same,pIC50,U-266,7.97
same,pIC50,MSTO-211H,7.91
same,pIC50,TE-12,< 7.00
same,pIC50,LOX IMVI,8.16
same,pIC50,KLE,< 7.00
same,pIC50,MZ1-PC,7.62
same,pIC50,UACC-257,7.04
same,pIC50,SCC-15,7.64
same,pIC50,SNB-75,7.95
same,pIC50,DEL,8.67
same,pIC50,SW982,8.05
same,pIC50,TE-11,8.29
same,pIC50,GAK,< 7.00
same,pIC50,TE-1,7.96
same,pIC50,NB10,8.14
same,pIC50,GI-ME-N,8.22
same,pIC50,COLO-824,< 7.00
same,pIC50,Lu-65,< 7.00
same,pIC50,Mo,< 7.00
same,pIC50,NCI-H1092,< 7.00
same,pIC50,KINGS-1,8.03
same,pIC50,SW684,< 7.00
same,pIC50,KNS-42,7.73
same,pIC50,MEG-01,7.83
same,pIC50,SW 954,8.01
same,pIC50,CAS-1,7.03
same,pIC50,D283 Med,7.41
same,pIC50,NB5,7.80
same,pIC50,SNU1,8.79
same,pIC50,NCI-H226,7.86
same,pIC50,NOS-1,7.39
same,pIC50,MN-60,7.53
same,pIC50,KU812 cell line,7.77
same,pIC50,HEL,7.48
same,pIC50,COLO-684,8.12
same,pIC50,KURAMOCHI,< 7.00
same,pIC50,TK-10,7.37
same,pIC50,KALS-1,8.11
same,pIC50,DB,8.77
same,pIC50,HH,8.20
same,pIC50,RH-1,8.47
same,pIC50,no-11,7.41
same,pIC50,AM-38,7.43
same,pIC50,NCI-H23,8.24
same,pIC50,OCUB-M,8.12
same,pIC50,MPP-89,7.52
same,pIC50,MFM-223,< 7.00
same,pIC50,NCI-H1648,8.26
same,pIC50,CP66-MEL,7.31
same,pIC50,LU-139,7.85
same,pIC50,CW-2,< 7.00
same,pIC50,NTERA-2-cl-D1,8.23
same,pIC50,CGTH-W-1,8.26
same,pIC50,ALL-PO,8.28
same,pIC50,U-87 MG,7.52
same,pIC50,8-MG-BA,8.20
same,pIC50,NCI-H510A,8.56
same,pIC50,DMS-79,< 7.00
same,pIC50,LC-2-ad,8.10
same,pIC50,NCI-H1770,7.55
same,pIC50,KP-N-YS,7.64
same,pIC50,MS-1,7.51
